Experimental data as given in PMC6928599, “Construction of a Robust Cofactor Self-Sufficient Bienzyme Biocatalytic System for Dye Decolorization and its Mathematical Modeling” (International Journal of Molecular Sciences, 2019).

Target: CsTMR (triphenylmethane reductase) (Citrobacter sp. MY-5, UniProt Q2TNI4)
Experiment: decolorization in bienzyme fed-batch system; OD616 assay
Format: biochemical
Conditions: glucose 200 mM, NAD 1 mM, malachite green 3 µM, BzGDH for NADH regeneration, 25 °C; OD616 assay: 200 µM NADH, 20 µM malachite green, pH 7.0

Chain of CsTMR (triphenylmethane reductase) (Q2TNI4 entry or part of it): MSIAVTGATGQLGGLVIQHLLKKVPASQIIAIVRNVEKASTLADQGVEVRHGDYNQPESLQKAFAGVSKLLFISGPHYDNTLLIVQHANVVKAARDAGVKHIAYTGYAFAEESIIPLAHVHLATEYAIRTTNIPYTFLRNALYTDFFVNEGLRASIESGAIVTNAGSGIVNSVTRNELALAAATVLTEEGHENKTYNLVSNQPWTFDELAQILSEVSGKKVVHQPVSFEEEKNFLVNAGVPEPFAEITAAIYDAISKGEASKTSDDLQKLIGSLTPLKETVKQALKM

CN(C)c1ccc(C(=C2C=CC(=[N+](C)C)C=C2)c2ccccc2)cc1 [malachite green]
decolorization in bienzyme fed-batch system; OD616 assay: The activity of CsTMR was assayed by monitoring the OD616 of malachite green
